# Test results: patent US6383479B1, “Neutrophil-activating factor” (Novartis AG, priority 1987, dated 2002)
# How the values were obtained:
# human neutrophils [1] = experiment: hydrogen peroxide formation by chemiluminescence in human neutrophils; type: cell-based
# Experimental: b) H2O2-dependent chemiluminescence: the progress curves following stimulation with partially purified NAF and approximately equiactive concentrations of C5a and fMLP are shown on the left. The initial phase of the response is detailed on the right. The stimulants are added in 50 μl of PBS-BSA.
# Lower graphs: respiratory burst induced by natural (left) and recombinant (right) NAF. Neutrophils (10^6 cells/ml) are stimulated with 3, 10 and 30 nM NAF at time zero and hydrogen peroxide production is measured by chemiluminescence (M. P. Wymann et al., Anal. Biochem. 165 [1987] 371-378).
# The properties of NAF, fMLP and C5a as stimuli of the respiratory burst are compared by assessing the production of superoxide or hydrogen peroxide by the stimulated cells. Superoxide formation is determined as described in Example 13. Hydrogen peroxide formation is determined by chemiluminescence (M. P. Wymann et al., Anal. Biochem. 165 [1987] 371-378). The assay mixture consisting of PBS-BSA containing 0.1 M sodium azide, 0.01 mM luminol, 9 U/ml horseradish peroxidase and 10^6 neutrophils is preincubated for 10 min at 37° and the reaction is started by adding the stimulus via a microsyringe.
# neutrophils = experiment: sequential/repeated stimulation of neutrophils (desensitization, superoxide formation); type: cell-based, human
# Experimental: a) Neutrophils (3×10^6 /ml) are preincubated at 37° C. for 5 min. and then stimulated with different agonists as indicated (arrows).
# b) Sequential or repeated stimulation with NAF and C5a. Conditions as in a).
# Arrows show addition of agonists as indicated. The concentration of C5a is 0.5 nM in a) and 0.2 nM in b), that of fMLP is 20 nM in both experiments. The agonists are added in 50 μl of PBS-BSA.
# On the other hand, when agonists acting on different receptors are used in sequence.(e.g. fMLP followed by C5a) these stimulations yield a normal response. Experiments of this type are therefore used to find out whether NAF acts by its own receptor or via a receptor also used by other agonists.
# human neutrophils [2] = experiment: superoxide formation (SOD-sensitive cytochrome c reduction) by human neutrophils; type: cell-based; details: per 10^6 cells
# Experimental: a) Superoxide production: neutrophils (3×10^6 /ml) are preincubated at 37° with or without 1 μm PAF for 2 minutes and then stimulated with increasing amounts of NAF. Recordings of cytochrome c reduction following NAF addition are shown.
# Superoxide formation is measured at 37° as the SOD sensitive reduction of ferricytochrome c (M. Markert et al., Methods Enzymol. 132 [1984] 267). The assay mixture (800 μl) consists of 0.75×10^6 cells/ml PBS-BSA containing 85 μM cytochrome c. Absorbance changes are recorded in a Hewlett-Packard 8451A diode array spectrophotometer equipped with a thermostated seven-place cuvette exchanger. Table 4 documents the capacity of NAF to elicit the respiratory burst in human neutrophils: […]
# [3] = exposure to fresh human serum, then activity (superoxide production); type: in vitro ADME; details: 15 minutes with fresh human serum
# Experimental: C5A and NAF are incubated for 15 minutes with fresh human serum or with PBS and the activity of the preparations is determined (superoxide production).
# Since C5a and NAF have similar effects on neutrophils, further experiments must be performed to discriminate entirely between the two. Samples of NAF and C5a are exposed to fresh human serum.
# human neutrophils [4] = experiment: stimulus-dependent exocytosis of granule contents by human neutrophils; type: cell-based
# Experimental: Neutrophils (5×10^6/ml) suspended in PBS/BSA are preincubated with or without cytochalasin B (5 μg/ml) at 37° for 5 min.
# Granule release is then initiated by adding the stimulus, e.g. NAF or a standard stimulus. The reaction is stopped 15 min later by rapid cooling in ice followed by centrifugation to sediment the cells. Vitamin B12-binding protein, β-glucuronidase and lactate dehydrogenase are determined in the cell-free media and cell pellets, and the release of these constituents is calculated in percent of the total cellular content (B. Dewalt and M. Baggiolini, Methods Enzymol. 132 [1986] 267).
# Natural and recombinant NAF are tested in parallel on human neutrophils. They elicit virtually identical changes in cytosolic free Ca^2+, yielding a maximum rise at a concentration as low as 3 nM (FIG. 15). A nearly identical concentration-dependent respiratory burst response is obtained with both preparations in the range of 1 to 30 nM as assessed by chemiluminescence. The equivalence between natural and recombinant NAF is also reflected by chemotaxis and exocytosis measurements. Chemotactic migration is observed between 0.1 and 10 nM with a maximum effect at 1 nM. (Table 6). With either peptide a significant release of vitamin B12-binding protein from the specific granules at 0.3 nM and of beta-glucuronidase from the azurophil granules at 1 nM is observed.
# thymocyte = thymocyte proliferation as a measure of IL-1 activity; type: cell-based; details: phosphocellulose fractions
# Experimental: Mononuclear cells obtained from donor blood buffy coats as described in Example 1 are cultured in MEM-PPL for 48 h in the presence of 100 ng/ml LPS in stirred culture bottles (1.5 liter, 5×10^6 cells/ml). The culture supernatants are then collected, centrifuged at 20000 rpm for 20 min. at 4° to remove particulate material, and loaded onto a 10 ml phosphocellulose column (Whatman P11, 1,4×6 cm) equilibrated with 20 mM potassium phosphate buffer, pH 7.2 containing 20 mM NaCl and 5% glycerol. The column is washed with 30 ml of the above buffer and then eluted with 90 ml of a linear NaCl concentration gradient (0.02 M to 1.5 M) in the same buffer. Fractions of 2 ml are collected in 0.1% polyethylene glycol and tested for NAF and IL-1 activity. Absorbance at 280 nm is monitored continuously as a measure of protein.
# Most of the protein as well as the IL-1 activity are recovered in the flow-through volume. Elution with a linear NaCl gradient yields some IL-1 activity at low ionic strength followed by a peak of elastase-releasing activity corresponding to NAF, which starts to elute at 0.5 M and reaches its maximum at 0.8 M NaCl. The peak is symmetric and is preceded by a small shoulder.
# [5] = NAF 50 μl, with CB (cytochalasin B 5 μg/ml)
# [6] = NAF 100 μl, with CB (cytochalasin B 5 μg/ml)
substance,measurement,setting,value
neutrophil-activating factor [NAF],time between stimulus addition and onset of H2O2 production,human neutrophils [1],about 2 sec
same,"cross-desensitization in combinations of NAF with PAF, fMLP and leukotriene B4",neutrophils,fail to show cross-desensitization
same,cross-desensitization between NAF and C5a,neutrophils; superoxide formation,no cross-desensitization
same,desensitization to a second stimulation with the same agonist,neutrophils; superoxide formation,complete desensitization
same,"Cytochrome c reduction, Maximum rate",human neutrophils [2]; NAF 5 μl,0.81 nmol/min
same,"Cytochrome c reduction, Total in 3 min",human neutrophils [2]; NAF 5 μl,0.89 nmol
same,"Cytochrome c reduction, Maximum rate",human neutrophils [2]; NAF 10 μl,1.45 ± 0.63 nmol/min
same,"Cytochrome c reduction, Total in 3 min",human neutrophils [2]; NAF 10 μl,1.45 ± 0.50 nmol
same,"Cytochrome c reduction, Maximum rate",human neutrophils [2]; NAF 20 μl,2.32 ± 0.56 nmol/min
same,"Cytochrome c reduction, Total in 3 min",human neutrophils [2]; NAF 20 μl,2.16 ± 0.39 nmol
same,"Cytochrome c reduction, Maximum rate",human neutrophils [2]; NAF 30 μl,2.51 ± 0.50 nmol/min
same,"Cytochrome c reduction, Total in 3 min",human neutrophils [2]; NAF 30 μl,2.30 ± 0.55 nmol
same,"Cytochrome c reduction, Maximum rate",human neutrophils [2]; NAF 50 μl,3.51 ± 0.69 nmol/min
same,"Cytochrome c reduction, Total in 3 min",human neutrophils [2]; NAF 50 μl,3.10 ± 0.55 nmol
same,"Cytochrome c reduction, Maximum rate",human neutrophils [2]; NAF 100 μl,3.69 nmol/min
same,"Cytochrome c reduction, Total in 3 min",human neutrophils [2]; NAF 100 μl,3.39 nmol
same,effect of serum treatment on activity,[3],does not affect
same,Percent release of Vit. B12-binding protein,human neutrophils [4]; [5],25.6 ± 3.4%
same,Percent release of lactate dehydrogenase,human neutrophils [4]; [5],6.7 ± 1.6%
same,Percent release of β-glucuronidase,human neutrophils [4]; [5],7.9 ± 2.0%
same,Percent release of Vit. B12-binding protein,"human neutrophils [4]; NAF 50 μl, without CB",12.9 ± 1.6%
same,Percent release of lactate dehydrogenase,"human neutrophils [4]; NAF 50 μl, without CB",5.8 ± 0.7%
same,Percent release of β-glucuronidase,"human neutrophils [4]; NAF 50 μl, without CB",2.7 ± 1.3%
same,Percent release of Vit. B12-binding protein,human neutrophils [4]; [6],26.8 ± 4.9%
same,Percent release of lactate dehydrogenase,human neutrophils [4]; [6],7.3 ± 2.1%
same,Percent release of β-glucuronidase,human neutrophils [4]; [6],8.5 ± 1.7%
same,Percent release of Vit. B12-binding protein,"human neutrophils [4]; NAF 100 μl, without CB",13.9 ± 2.1%
same,Percent release of lactate dehydrogenase,"human neutrophils [4]; NAF 100 μl, without CB",6.8 ± 2.2%
same,Percent release of β-glucuronidase,"human neutrophils [4]; NAF 100 μl, without CB",3.0 ± 1.3%
same,thymocyte proliferation-inducing activity (IL-1 activity),thymocyte,no thymocyte proliferation-inducing activity
